Reference: patent US20240150321A1, “PYRAZOLYLSULFONAMIDE COMPOUNDS AND THEIR USE IN THERAPY” (HOTSPOT THERAPEUTICS, INC., priority 2022, published 2024)
pIC50: −log10 of the molar value. Like-named read-outs stand apart in the source and are kept apart here.

Columns and labels:
Avi-tagged FL MALT-1 = Avi-tagged FL MALT-1 (Homo sapiens (Human), UniProt Q9UDY8); test: MALT-1 Fluorogenic Peptide Cleavage Assay (MALT1 inhibition assay); type: biochemical; details: Ac-LRSR-AMC peptide substrate, 30 min pre-incubation, 90 min reaction at room temperature
Method in brief: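 Full-length Avi-tagged human MALT-1 (40 nM working stock) pre-incubated 30 min at RT with compound in 25 mM HEPES pH 6.89, 660 mM sodium citrate, 1 mM TCEP, […], 0.05% CHAPS, 2% DMSO. Ac-LRSR-AMC added at Km (50 μM working stock) or 10×Km (280 μM working stock); 90 min at RT, AMC fluorescence (ex 342/em 441 nm), IC50 from % inhibition curves.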

[1] = test system: NF-kB reporter in Jurkat cells; test: NF-kB reporter assay in Jurkat cells stimulated with aCD3/aCD28/PMA; type: cell-based; details: Homo sapiens, read-out: NF-kB Reporter Assay IC50
Method in brief: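 Jurkat cells (25,000/well, serum-free RPMI) were pre-incubated 1 h at 37° C with serially diluted compound, then stimulated 4 h with aCD3/aCD28/PMA at final […]. NF-kB reporter activity was read by One-Glo luminescence; IC50 values reported.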

[2] = Jurkat cells, 1 hr compound pre-incubation, aCD3/aCD28/PMA stimulation 4 hr, One-Glo readout

Avi-tagged FL MALT-1, sequence (Q9UDY8 whole entry): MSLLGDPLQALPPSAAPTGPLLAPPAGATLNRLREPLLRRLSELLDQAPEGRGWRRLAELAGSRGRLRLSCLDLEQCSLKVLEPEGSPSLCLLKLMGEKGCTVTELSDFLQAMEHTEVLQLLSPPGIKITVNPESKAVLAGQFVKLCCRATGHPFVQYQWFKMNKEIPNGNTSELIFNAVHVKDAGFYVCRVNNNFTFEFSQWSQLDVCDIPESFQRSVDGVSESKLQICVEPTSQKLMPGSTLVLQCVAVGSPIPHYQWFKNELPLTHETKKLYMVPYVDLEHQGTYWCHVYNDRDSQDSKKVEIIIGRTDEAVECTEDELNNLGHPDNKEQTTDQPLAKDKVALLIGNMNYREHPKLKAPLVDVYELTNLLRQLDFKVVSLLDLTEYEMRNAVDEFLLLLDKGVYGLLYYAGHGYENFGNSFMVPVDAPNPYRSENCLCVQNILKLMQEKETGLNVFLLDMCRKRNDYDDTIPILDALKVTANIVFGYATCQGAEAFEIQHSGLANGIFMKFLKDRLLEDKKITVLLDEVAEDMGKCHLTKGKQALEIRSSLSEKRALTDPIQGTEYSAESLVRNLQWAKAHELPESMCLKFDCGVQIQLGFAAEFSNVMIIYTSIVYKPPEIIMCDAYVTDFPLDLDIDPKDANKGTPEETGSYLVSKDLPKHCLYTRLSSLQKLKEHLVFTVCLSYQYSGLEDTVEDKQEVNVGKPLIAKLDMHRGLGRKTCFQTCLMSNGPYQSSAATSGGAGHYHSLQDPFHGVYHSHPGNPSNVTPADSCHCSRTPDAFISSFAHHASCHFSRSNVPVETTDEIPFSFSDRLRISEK

SMILES	pIC50 (Avi-tagged FL MALT-1)	pIC50 [1, 2]	pIC50 ([1]; Jurkat)
COc1ccc2[nH]nc(C)c2c1N(C)S(=O)(=O)c1cnn(-c2cc(C(F)(F)F)ccn2)c1 [Compound I-82, N-(5-Methoxy-3-Methyl-1H-Indazol-4-yl)-N-Methyl-1-(4-(Trifluoromethyl)Pyridin-2-yl)-1H-Pyrazole-4-Sulfonamide]	≥ 6.40	> 6.40	–
COc1ccc2cnn(C)c2c1NS(=O)(=O)c1cn(-c2cc(C(F)(F)F)ccn2)nc1C [Compound I-83, N-(6-Methoxy-1-Methyl-1H-Indazol-7-yl)-3-Methyl-1-(4-(Trifluoromethyl)Pyridin-2-yl)-1H-Pyrazole-4-Sulfonamide]	≥ 6.40	> 6.40	–
COc1ccc2cnn(C)c2c1NS(=O)(=O)c1cnn(-c2cc(C(F)(F)F)ccn2)c1C [Compound I-84, N-(6-Methoxy-1-Methyl-1H-Indazol-7-yl)-5-Methyl-1-(4-(Trifluoromethyl)Pyridin-2-yl)-1H-Pyrazole-4-Sulfonamide]	≥ 6.40	> 6.40	–
Cn1ncc2ccc(Cl)c(NS(=O)(=O)c3cnn(-c4cc(C(F)(F)F)ccn4)c3)c21 [Compound I-85, N-(6-chloro-1-Methyl-1H-Indazol-7-yl)-1-(4-(Trifluoromethyl)Pyridin-2-yl)-1H-Pyrazole-4-Sulfonamide]	≥ 6.40	> 6.40	–
COc1ncc2cnn(C)c2c1NS(=O)(=O)c1cnn(-c2ccnc(C(F)(F)F)c2)c1 [Compound I-87, N-(6-Methoxy-1-Methyl-1H-Pyrazolo[4,3-C]Pyridin-7-yl)-1-(2-(Trifluoromethyl)Pyridin-4-yl)-1H-Pyrazole-4-Sulfonamide]	≥ 6.40	> 6.40	–
COc1cnc(C(F)(F)F)cc1-n1cc(S(=O)(=O)Nc2c(OC)ccc3cnn(C)c23)cn1 [Compound I-90, N-(6-Methoxy-1-Methyl-1H-Indazol-7-yl)-1-(5-Methoxy-2-(Trifluoromethyl)Pyridin-4-yl)-1H-Pyrazole-4-Sulfonamide]	≥ 6.40	> 6.40	–
COc1ccc2cnn(C)c2c1NS(=O)(=O)c1cnn(-c2cc(C(C)(F)F)ccn2)c1 [Compound I-91, 1-(4-(1,1-Difluoroethyl)Pyridin-2-yl)-N-(6-Methoxy-1-Methyl-1H-Indazol-7-yl)-1H-Pyrazole-4-Sulfonamide]	≥ 6.40	> 6.40	–
COCCn1ncc2cccc(NS(=O)(=O)c3cnn(-c4cc(C(F)(F)F)ccn4)c3)c21 [Compound I-98, N-(1-(2-Methoxyethyl)-1H-Indazol-7-yl)-1-(4-(Trifluoromethyl)Pyridin-2-yl)-1H-Pyrazole-4-Sulfonamide]	< 5.60	< 5.60	–
[2H]C([2H])([2H])n1nc(F)c2cccc(NS(=O)(=O)c3cnn(-c4cc(C(F)(F)F)ccn4)c3)c21 [Compound I-100]	< 5.60	> 6.40	–
Cn1ncc2cccc(NS(=O)(=O)c3cnn(-c4cc(N5CCOCC5)ccn4)c3)c21 [Compound I-103, N-(1-methyl-1H-indazol-7-yl)-1-(4-morpholinopyridin-2-yl)-1H-pyrazole-4-sulfonamide]	< 5.60	> 6.40	–
Cn1cc2ccc(F)c(NS(=O)(=O)c3cnn(-c4cc(C(F)(F)F)ccn4)c3)c2n1 [Compound I-104, N-(6-fluoro-2-methyl-2H-indazol-7-yl)-1-(4-(trifluoromethyl)pyridin-2-yl)-1H-pyrazole-4-sulfonamide]	< 5.60	< 5.60	–
Cn1ncc2cccc(NS(=O)(=O)c3cnn(-c4cc(C5(O)CCC5)ccn4)c3)c21 [Compound I-107, 1-(4-(1-Hydroxycyclobutyl)Pyridin-2-yl)-N-(1-Methyl-1H-Indazol-7-yl)-1H-Pyrazole-4-Sulfonamide]	< 5.60	–	> 6.40
O=S(=O)(Nc1cccc2cnn(C(F)F)c12)c1cnn(-c2cc(C(F)F)ccn2)c1 [Compound I-108, N-[1-(difluoromethyl)indazol-7-yl]-1-[4-(difluoromethyl)pyridin-2-yl]pyrazole-4-sulfonamide]	< 5.60	< 5.60	–
O=S(=O)(Nc1cccc2cnn(C(F)F)c12)c1cnn(-c2cc(Cl)ccn2)c1 [Compound I-110, 1-(4-chloropyridin-2-yl)-N-[1-(difluoromethyl)indazol-7-yl]pyrazole-4-sulfonamide]	< 5.60	< 5.60	–

Second part, led by results:

pIC50 (Avi-tagged FL MALT-1)	pIC50 [1, 2]	SMILES	pIC50 ([1]; Jurkat)
< 5.60	> 6.40	Cn1ncc2cccc(NS(=O)(=O)c3cnn(-c4cc(Cl)ccn4)c3)c21 [Compound I-86, 1-(4-Chloropyridin-2-yl)-N-(1-Methyl-1H-Indazol-7-yl)-1H-Pyrazole-4-Sulfonamide]	–
< 5.60	> 6.40	Cc1n[nH]c2cccc(NS(=O)(=O)c3cnn(-c4ccnc(C5CC5)c4)c3)c12 [Compound I-88, 1-(2-Cyclopropylpyridin-4-yl)-N-(3-Methyl-1H-Indazol-4-yl)-1H-Pyrazole-4-Sulfonamide]	–
< 5.60	> 6.40	Cc1n[nH]c2cccc(NS(=O)(=O)c3cnn(-c4cc(C5CC5)ccn4)c3)c12 [Compound I-89, 1-(4-Cyclopropylpyridin-2-yl)-N-(3-Methyl-1H-Indazol-4-yl)-1H-Pyrazole-4-Sulfonamide]	–
< 5.60	> 6.40	COC1(c2ccnc(-n3cc(S(=O)(=O)Nc4cccc5cnn(C)c45)cn3)c2)CCC1 [Compound I-93, 1-(4-(1-Methoxycyclobutyl)Pyridin-2-yl)-N-(1-Methyl-1H-Indazol-7-yl)-1H-Pyrazole-4-Sulfonamide]	–
< 5.60	> 6.40	Cn1ncc2cccc(NS(=O)(=O)c3cnn(-c4cc(C5(F)CCC5)ccn4)c3)c21 [Compound I-94, 1-(4-(1-fluorocyclobutyl)pyridin-2-yl)-N-(1-methyl-1H-indazol-7-yl)-1H-pyrazole-4-sulfonamide]	–
< 5.60	> 6.40	Cc1ncn2cccc(NS(=O)(=O)c3cnn(-c4cc(C(F)(F)F)ccn4)c3)c12 [Compound I-95, N-(1-methylimidazo[1,5-a]pyridin-8-yl)-1-(4-(trifluoromethyl)pyridin-2-yl)-1H-pyrazole-4-sulfonamide]	–
≥ 6.40	> 6.40	[2H]C([2H])([2H])Oc1ccc2cnn(C)c2c1NS(=O)(=O)c1cnn(-c2cc(C3CC3)ccn2)c1 [Compound I-96, 1-(4-cyclopropylpyridin-2-yl)-N-(6-(methoxy-d3)-1-methyl-1H-indazol-7-yl)-1H-pyrazole-4-sulfonamide]	–
≥ 6.40	> 6.40	[2H]C([2H])([2H])n1ncc2ccc(OC)c(NS(=O)(=O)c3cnn(-c4cc(C5CC5)ccn4)c3)c21 [Compound I-97, 1-(4-Cyclopropylpyridin-2-yl)-N-(6-Methoxy-1-(Methyl-D3)-1H-Indazol-7-yl)-1H-Pyrazole-4-Sulfonamide]	–
< 5.60	> 6.40	COC1(c2ccnc(-n3cc(S(=O)(=O)Nc4cccc5cnn(C)c45)cn3)c2)CC(F)C1 (centres unmarked) [Compound I-99, 1-(4-(3-fluoro-1-methoxycyclobutyl)pyridin-2-yl)-N-(1-methyl-1H-indazol-7-yl)-1H-pyrazole-4-sulfonamide]	–
< 5.60	> 6.40	Cn1ncc2cccc(NS(=O)(=O)c3cnn(-c4cc(C5(O)COC5)ccn4)c3)c21 [Compound I-101, 1-(4-(3-hydroxyoxetan-3-yl)pyridin-2-yl)-N-(1-methyl-1H-indazol-7-yl)-1H-pyrazole-4-sulfonamide]	–
< 5.60	< 5.60	COCCn1ncc2cccc(NS(=O)(=O)c3cnn(-c4cc(C5CC5)ccn4)c3)c21 [Compound I-102, 1-(4-cyclopropylpyridin-2-yl)-N-(1-(2-methoxyethyl)-1H-indazol-7-yl)-1H-pyrazole-4-sulfonamide]	–
< 5.60	5.60 to 6.00	Cn1nc2c(NS(=O)(=O)c3cnn(-c4cc(C(F)(F)F)ccn4)c3)cccc2c1Cl [Compound I-105, N-(3-chloro-2-methyl-2H-indazol-7-yl)-1-(4-(trifluoromethyl)pyridin-2-yl)-1H-pyrazole-4-sulfonamide]	–
< 5.60	> 6.40	Cc1n[nH]c2cccc(NS(=O)(=O)c3cnn(-c4ccc(C5CC5)cn4)c3)c12 [Compound I-106, 1-(5-cyclopropylpyridin-2-yl)-N-(3-methyl-1H-indazol-4-yl)-1H-pyrazole-4-sulfonamide]	–
< 5.60	> 6.40	Cn1ncc2cccc(NS(=O)(=O)c3cnn(-c4cc(C5=CCOC5)ccn4)c3)c21 [Compound I-109, 1-(4-(2,5-Dihydrofuran-3-yl)Pyridin-2-yl)-N-(1-Methyl-1H-Indazol-7-yl)-1H-Pyrazole-4-Sulfonamide]	–
< 5.60	> 6.40	Cn1nc(Cl)c2cccc(NS(=O)(=O)c3cnn(-c4cc(C(F)(F)F)ccn4)c3)c21 [Compound I-111, N-(3-chloro-1-methyl-1H-indazol-7-yl)-1-(4-(trifluoromethyl)pyridin-2-yl)-1H-pyrazole-4-sulfonamide]	–
< 5.60	> 6.40	Cn1ncc2cccc(NS(=O)(=O)c3cnn(-c4cc(C5(F)CC(F)C5)ccn4)c3)c21 (centres unmarked) [Compound I-112, 1-(4-(1,3-difluorocyclobutyl)pyridin-2-yl)-N-(1-methyl-1H-indazol-7-yl)-1H-pyrazole-4-sulfonamide]	–
< 5.60	> 6.40	Cn1ncc2cccc(NS(=O)(=O)c3cnn(-c4cc(C(C)(C)F)ccn4)c3)c21 [Compound I-113, 1-(4-(2-fluoropropan-2-yl)pyridin-2-yl)-N-(1-methyl-1H-indazol-7-yl)-1H-pyrazole-4-sulfonamide]	–
